Results taken from paper PMC10779086, “3-O-Methyltolcapone and Its Lipophilic Analogues Are Potent Inhibitors of Transthyretin Amyloidogenesis with High Permeability and Low Toxicity” (International Journal of Molecular Sciences, 2023).
Values joined by “and” are separate entries in the source; they are usually repeats but may differ in a detail not shown here. Equal entries are not always repeated.

Assays:
[1] = Chromatographic Hydrophobicity Index (CHI); assay type: physicochemical
Text: The assay is a chromatographic fast gradient reversed-phase method which allows to characterize the lipophilicity of compounds in high throughput screening regime at three different pH values (2.0; 7.4; 10.5). The so defined CHI is obtained from the gradient (buffer/Acetonitrile) retention time after calibrating the chromatographic system with a test mixture of ten known standard compounds. For most compounds, CHI is between 0 and 100 and it approximates the percentage (by volume) of acetonitrile required to achieve an equal distribution of compound between the mobile and the lipophilic stationary phase of a C18 chromatographic column. Compounds that are not retained on the column are assigned to a CHI value < 0, which means very low lipophilicity. For highly lipophilic compounds, which are strongly retained by the column, a CHI value of >100 is assigned. For any value in between, the actual CHI value is calculated based on the calibration line of the reference compounds [49].

[2] = test system: HepG2 human liver cancer cell line; test: Cytotoxicity in HepG2 cells (ATP viability assay); assay type: cell-based; details: 48 h
Experimental: Compounds were dissolved at the concentration of 50 mM in DMSO.
DMSO normalisation at 1.0% was performed in each well.
Cell viability was evaluated by measuring ATP levels using CellTiter Glo (Promega Cat.n. G7570) according to manufacturer’s instructions.

[3] = Caco-2 intestinal permeability; assay type: in vitro ADME, human; details: human; for efflux ratio at 60 min, 10 μM: Caco-2, pH 7.4, without inhibitor, read-out: Efflux Ratio (Papp BA/Papp AB); for Papp A→B at 60 min, 10 μM / Papp B→A at 60 min, 10 μM: Caco-2, pH 7.4
Experimental: Caco-2 cells (cod. HTB-37) were bought from ATCC (American Type Culture Collection, Rockville, MD, USA). Caco-2 cells were cultured for 21 days on a 24 trans-well plate to reach the right confluence and differentiate until the formation of the intestinal epithelium mimetic monolayer. The test substance permeability was measured in both directions (apical to basolateral [A→B] and basolateral to apical [B→A]) across the cell monolayer. The assay was carried out in HBSS transport medium at pH 7.4. Test substance at single concentration (10 μM) was tested in duplicate at one time point (60 min). Monolayer integrity of Caco-2 cells was evaluated by TEER measurements during the experiment and by Lucifer Yellow test after the incubation with the test compound. The concentrations of the test substance and/or reference controls were measured by LC-MS/MS.
When the inhibitor leads the efflux ratio to a significant reduction (>50%) or to unity, the test compound is classified as a probable substrate of that efflux transporter. As control, the modulation of the efflux ratio of a reference known substrate (Digoxin) was evaluated with or without the respectively inhibitors in every experiment. […] In parallel, mass balance (%) of recovered test substance was also determined. […] Outside these ranges the permeability data is not reliable.

[4] = Kinetic solubility in PBS; assay type: physicochemical; details: Phosphate Buffered Saline (PBS), aqueous buffer, kinetic from dmso stock, PBS pH 7.4, 1% DMSO
Experimental: The assay combines solubility and a non-cell-based Blood Brain Barrier permeability assay (Parallel Artificial Membrane Permeation Assay; PAMPA-BBB) into a single workflow in which a portion of the filtrate from the Solubility filter plate is added to the donor compartment of the MultiScreen filter plate for the PAMPA-BBB analysis. […] Solutions were filtered into a 96-well collection plate using vacuum filtration and then analysed by UV/Vis spectroscopy. The relative solubility was then calculated using the sum of the recorded values as compared to a standard calibration curve. […] PAMPA-BBB determination was carried out in a 96-well MultiScreen Permeability plate and the ability of a compound to diffuse from a Donor to an Acceptor compartment separated by a Porcine Brain Lipid Extract (PBLE) dissolved in dodecane (20 mg/mL) layer on a PVDF membrane support was measured. The assay was performed in duplicate in PBS at pH 7.4 and the analysis is carried out by UV/Vis spectroscopy.

TTR [5] = biological target: T1, TTR (Homo sapiens, UniProt P02766); test: TTR tetramer stability in diluted human plasma with urea, by immunoblotting; assay type: biochemical; parameters: from tissue; host or cells: human plasma; details: 4 M urea, versus DMSO control
Experimental: The TTR tetramer stability assay in the presence of urea and TTR ligands was performed according to a previously reported Western Blot procedure, with some modifications as follows. Aliquots of human plasma were diluted 8-fold in sodium phosphate buffer (NaP 40 mM, NaCl 150 mM pH 7.4) supplemented with 2 µM or 20 µM of each ligand. A plasma aliquot supplemented with DMSO was used as a negative control. After 2 h of incubation at 20 °C, an equal volume of 8 M urea in sodium phosphate buffer was added to obtain a final 4 M urea concentration and final ligand concentration of 1 µM or 10 µM. Incubation was prolonged for 18 h at 20 °C, followed by non-denaturing SDS-PAGE using Tris-Glycine buffers containing 0.025% of SDS in the running buffer and 0.2% of SDS in the Laemmli buffer. […] Blotting was accomplished with a Trans-Blot SD transfer apparatus (BIORAD), followed by incubation of nitrocellulose membranes with blocking buffer containing 5% skim milk overnight at 25 °C. Immunodetection of TTR monomers was performed by employing rabbit anti-human TTR polyclonal antibody (Dako) as a primary and goat anti-rabbit antibody labelled with DyLight 680 ([…]) as a secondary. Western Blot images were recorded by using ChemiDoc MP imaging system (BIORAD) and analysed with Image Lab software v. 5.1 (BIORAD). The experiment was performed in triplicate, and ligands stabilisation capability was evaluated as the relative intensity of the TTR monomer in each condition in comparison to the negative control. Statistical analyses by means of ANOVA and graphic representations were performed with GraphPad Prism.

TTR [6] = biological target: T1, TTR; test: Isothermal titration calorimetry (ITC), one-binding-site model; parameters: made in house; host or cells: E. coli BL21; ∆S: unit not given here; details: single-binding-site model, 25 °C; for Kd: pH 7.4, 5% DMSO
Experimental: At an absorbance value of 600 nm around 0.3, the temperature was shifted to 30 °C.
Data were fitted using the “one-binding-site model” of the Malvern version of ORIGIN v.7. The heat of binding (ΔH), the stoichiometry (n), entropy (ΔS) and the dissociation constant (Kd) were then calculated from plots of the heat evolved per mole of ligand injected versus the molar ratio of ligand to protein using the software provided by the vendor (Table 3). Sample preparation is detailed below. […] A 10 µM protein stock in 2× buffer was then prepared and diluted 1:1 with a 10% DMSO solution, to obtain a 5 µM TTR solution in 1× buffer A and 5% DMSO. Different protein concentrations (3–5 µM) assayed in the replicates were prepared accordingly, starting from a 2× protein solution in 2× buffer A. Each ligand was dissolved in 100% DMSO and a 2 mM stock solution in 100% DMSO was prepared. A 200 µM compound solution was obtained in 10% DMSO and diluted 1:1 with 2× buffer A, to obtain a 100 µM ligand solution to be used for the ITC assays (in 1× buffer A and 5% DMSO).

Structure (SMILES)	CHI (pH 2.0) [1]	CHI (pH 7.4) [1]	CHI (pH 10.5) [1]	EC50 [2]	recovery at 60 min, 10 µM ([3]; Caco-2, pH 7.4, A→B)	recovery at 60 min, 10 µM ([3]; Caco-2, pH 7.4, B→A)	efflux ratio at 60 min, 10 μM [3]	Papp A→B at 60 min, 10 μM [3]	Papp B→A at 60 min, 10 μM [3]	solubility [4]	relative abundance of TTR monomer (TTR [5]; ligand 1 µM)	relative abundance of TTR monomer (TTR [5]; ligand 10 µM)	n (stoichiometry of binding, ligand:TTR tetramer) (TTR [6])	∆H (TTR [6])	∆S (TTR [6])	Kd (TTR [6])
COc1cc(C(=O)c2ccc(C)cc2)cc([N+](=O)[O-])c1O [3-OMT, 3-O-methyltolcapone]	89.2	50.2	46.0	262 ± 20.7 µM	66 ± 4%	83 ± 8%	1.5	16 ± 2.9 ×10⁻⁶ cm/s	24.3 ± 3 ×10⁻⁶ cm/s	> 500 µM	14% and 14.1 ± 1.8%	9.4 ± 1.5%	1.9 ± 0.2	-8.9 kcal/mol and -8.9 ± 0.3 kcal/mol	4.6 ± 0.5	0.033 ± 0.009 µM
COc1cc(C(=O)c2cc(C)cc(C)c2)cc([N+](=O)[O-])c1O [Compound 1, (4-Hydroxy-3-methoxy-5-nitrophenyl)-1-(3,5-dimethylphenyl)methanone]	97.8	55.5	51.7	410 ± 33 µM	64 ± 4%	77 ± 2%	1	24 ± 2.1 ×10⁻⁶ cm/s	23.1 ± 2.3 ×10⁻⁶ cm/s	> 500 µM	17% and 17.2 ± 2.1%	9.5 ± 2.8%	1.8 ± 0.1	-11.5 kcal/mol and -11.5 ± 1.3 kcal/mol	−2.9 ± 0.9	0.071 ± 0.026 µM
COc1cc(C(=O)c2ccc(C)cc2C)cc([N+](=O)[O-])c1O [Compound 2, (4-Hydroxy-3-methoxy-5-nitrophenyl)-1-(2,4-dimethylphenyl)methanone]	96.1	53.8	50.2	216 ± 2.2 µM	69 ± 8%	80 ± 9%	1	25 ± 0.3 ×10⁻⁶ cm/s	26.8 ± 2.5 ×10⁻⁶ cm/s	> 500 µM	7% and 7.5 ± 0.4%	9.2 ± 1.5%	2.1 ± 0.3	-10.5 kcal/mol and -10.5 ± 0.2 kcal/mol	−0.4 ± 0.1	0.025 ± 0.005 µM
